Experiments:
[1] = target: T1, EKC/KEOPS complex subunit TP53RK (Homo sapiens) (UniProt Q96S44); test: Inhibition of PRPK ATP Loop labeling site in human Huh-7 cells at 1 uM by KiNativ Profiling analysis relative to control; assay type: cell-based
T1 sequence (whole entry): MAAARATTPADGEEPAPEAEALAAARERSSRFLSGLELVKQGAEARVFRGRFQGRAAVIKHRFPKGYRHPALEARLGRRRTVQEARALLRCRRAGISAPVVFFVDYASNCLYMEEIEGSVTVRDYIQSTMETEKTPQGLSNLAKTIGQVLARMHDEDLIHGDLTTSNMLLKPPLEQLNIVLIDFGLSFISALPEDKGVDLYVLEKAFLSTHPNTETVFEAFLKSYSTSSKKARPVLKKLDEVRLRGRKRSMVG

[2] = target: DNA-PK/Ku70/Ku85 (Homo sapiens) (UniProt P78527+P12956+P13010); test: Inhibition of DNAPK ATP labeling site harbouring GHDEREHPFLVKGGEDLRQDQR in human A-375 cells at 0.5 uM by KiNativ Profiling analysis relative to control; assay type: cell-based
[3] = target: T2, Mitogen-activated protein kinase kinase kinase kinase 2 (Homo sapiens) (UniProt Q12851); test: Inhibition of MAP4K2 (GCK) Lys2 labeling site in human A-375 cells at 0.5 uM by KiNativ Profiling analysis relative to control; assay type: cell-based
T2 sequence (whole entry): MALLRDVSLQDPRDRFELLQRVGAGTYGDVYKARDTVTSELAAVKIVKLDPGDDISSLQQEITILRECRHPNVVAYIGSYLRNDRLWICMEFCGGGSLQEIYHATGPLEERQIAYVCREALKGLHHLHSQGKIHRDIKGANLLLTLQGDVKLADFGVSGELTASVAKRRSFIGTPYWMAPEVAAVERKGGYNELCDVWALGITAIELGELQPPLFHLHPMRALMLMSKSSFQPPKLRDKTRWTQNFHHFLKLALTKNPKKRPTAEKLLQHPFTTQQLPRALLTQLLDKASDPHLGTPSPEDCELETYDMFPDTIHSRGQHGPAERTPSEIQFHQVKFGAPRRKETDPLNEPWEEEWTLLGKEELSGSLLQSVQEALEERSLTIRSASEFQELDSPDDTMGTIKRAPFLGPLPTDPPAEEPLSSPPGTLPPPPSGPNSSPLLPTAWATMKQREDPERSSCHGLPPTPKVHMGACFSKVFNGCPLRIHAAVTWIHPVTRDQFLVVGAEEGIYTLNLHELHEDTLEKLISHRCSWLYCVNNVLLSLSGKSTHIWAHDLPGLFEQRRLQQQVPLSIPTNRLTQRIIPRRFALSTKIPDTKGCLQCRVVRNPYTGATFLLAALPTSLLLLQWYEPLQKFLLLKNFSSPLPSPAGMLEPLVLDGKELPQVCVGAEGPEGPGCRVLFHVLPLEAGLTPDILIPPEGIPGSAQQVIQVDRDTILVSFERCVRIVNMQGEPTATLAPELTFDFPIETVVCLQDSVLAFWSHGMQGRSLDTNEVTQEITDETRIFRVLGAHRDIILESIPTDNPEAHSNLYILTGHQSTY

[4] = target: T3, Serine/threonine-protein kinase D2 (Homo sapiens) (UniProt Q9BZL6); test: Inhibition of PRKD2 (unknown origin) at 1 uM by Ambit Kinomescan binding assay relative to control
T3 sequence (whole entry): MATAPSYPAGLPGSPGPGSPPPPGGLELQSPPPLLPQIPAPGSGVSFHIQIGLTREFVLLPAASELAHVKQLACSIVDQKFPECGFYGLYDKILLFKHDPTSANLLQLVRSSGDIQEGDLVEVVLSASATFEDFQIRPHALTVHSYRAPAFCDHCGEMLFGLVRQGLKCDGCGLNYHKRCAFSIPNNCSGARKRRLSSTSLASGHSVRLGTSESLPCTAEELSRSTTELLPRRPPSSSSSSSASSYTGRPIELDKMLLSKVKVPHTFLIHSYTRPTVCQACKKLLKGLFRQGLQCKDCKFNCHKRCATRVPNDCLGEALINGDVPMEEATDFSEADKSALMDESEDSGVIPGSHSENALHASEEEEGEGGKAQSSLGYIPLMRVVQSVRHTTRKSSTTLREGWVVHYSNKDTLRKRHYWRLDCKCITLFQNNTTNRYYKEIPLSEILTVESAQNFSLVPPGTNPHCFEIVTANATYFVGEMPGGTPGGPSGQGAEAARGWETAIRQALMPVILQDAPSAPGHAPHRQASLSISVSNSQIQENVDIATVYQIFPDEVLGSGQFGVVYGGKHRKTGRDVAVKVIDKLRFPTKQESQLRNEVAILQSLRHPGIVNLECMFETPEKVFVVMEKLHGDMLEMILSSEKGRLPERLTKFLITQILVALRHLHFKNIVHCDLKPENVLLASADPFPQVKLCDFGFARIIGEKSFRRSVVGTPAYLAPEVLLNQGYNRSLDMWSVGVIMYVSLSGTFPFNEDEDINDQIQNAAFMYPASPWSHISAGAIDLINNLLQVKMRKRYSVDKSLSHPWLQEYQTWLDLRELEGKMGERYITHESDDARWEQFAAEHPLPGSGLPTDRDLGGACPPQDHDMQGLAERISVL

[5] = target: T4, Dual specificity mitogen-activated protein kinase kinase 3 (Homo sapiens) (UniProt P46734); test: Inhibition of MEK3 (unknown origin) at 1 uM by Ambit Kinomescan binding assay relative to control; values are per cent of control
T4 sequence (whole entry): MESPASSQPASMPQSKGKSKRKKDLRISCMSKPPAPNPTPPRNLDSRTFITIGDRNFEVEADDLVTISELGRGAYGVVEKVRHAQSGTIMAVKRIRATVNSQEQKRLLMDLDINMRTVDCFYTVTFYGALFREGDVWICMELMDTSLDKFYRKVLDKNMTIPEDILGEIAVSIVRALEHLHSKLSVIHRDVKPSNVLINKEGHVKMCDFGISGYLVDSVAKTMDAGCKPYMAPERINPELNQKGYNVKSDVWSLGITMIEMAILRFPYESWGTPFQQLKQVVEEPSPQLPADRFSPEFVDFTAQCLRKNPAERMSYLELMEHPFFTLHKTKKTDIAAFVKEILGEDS

Question: Which inhibition [1] does the source give for `CNc1cc(Oc2cc(C(=O)Nc3cc(N4CCN(C)CC4)cc(C(F)(F)F)c3)ccc2C)ncn1` here?
Answer: The inhibition was 22.9%.

Question: How did the inhibition [2] turn out when `CCN1CCN(Cc2ccc(NC(=O)c3ccc(C)c(Oc4ccnc5[nH]ccc45)c3)cc2C(F)(F)F)CC1` was run?
Answer: The inhibition was -6%.

Question: What about the inhibition [3] of the same compound?
Answer: The inhibition was 98%.

Question: For `CCN1CCN(Cc2ccc(NC(=O)c3ccc(C)c(/C=C/c4cnc5[nH]ccc5c4OC)c3)cc2C(F)(F)F)CC1`, which inhibition [4] is on record?
Answer: Its inhibition is 81%.

Question: And the residual activity [5]?
Answer: The residual activity was 62%.

Source: ChEMBL document CHEMBL5696442, “Discovery of type II inhibitors of TGFβ-activated kinase 1 (TAK1) and mitogen-activated protein kinase kinase kinase kinase 2 (MAP4K2)” (J Med Chem, 2015)
